# Results taken from PubChem BioAssay AID720632 (Broad Institute, 2013).
# Calls of active or inactive are those of the source. How the calls were made is not given here.
# Target: Caspase-6 (Homo sapiens) (UniProt P55212)
# Assay: human caspase-6 inhibitors, dose response, biochemical, VEID-R110 fluorescence, cherry-pick (AID 720632)
# Details: caspase-6, VEID-R110 fluorogenic substrate
# Sequence of Caspase-6 (Homo sapiens) (P55212 24-179 limits assumed): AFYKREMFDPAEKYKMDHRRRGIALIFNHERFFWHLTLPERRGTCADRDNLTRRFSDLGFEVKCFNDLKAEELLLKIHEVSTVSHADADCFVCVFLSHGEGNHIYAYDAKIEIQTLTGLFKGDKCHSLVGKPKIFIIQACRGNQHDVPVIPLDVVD
# Sequence of Caspase-6 (Homo sapiens) (P55212 194-293 limits assumed): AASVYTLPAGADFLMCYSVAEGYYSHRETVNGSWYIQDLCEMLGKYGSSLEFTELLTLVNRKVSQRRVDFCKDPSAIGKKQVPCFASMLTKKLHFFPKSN
row,Compound,AC50 [µM]
1,C[CH2][Hg][S]c1ccccc1C(=O)O,6.91

# Same assay, conditions: caspase-6, VEID-R110 fluorogenic substrate; at 23.5 µM (top of the series)
row,Compound,"activity change, negative = inhibition"
1,CCC(=O)Nc1ccc2c(c1)OC[C@@H](C)N(C(=O)COC)C[C@H](C)[C@@H](OC)CN(C)C2=O,inactive

# Same assay, conditions: caspase-6, VEID-R110 fluorogenic substrate; at 26 µM (top of the series)
row,Compound,"activity change, negative = inhibition"
1,O=C(NCC(c1ccco1)N1CCc2ccccc21)c1cccc([N+](=O)[O-])c1 (stereo not drawn),inactive
2,CSc1ccccc1NC(=O)Nc1ccccc1,inactive
3,O=C(Nc1cccc(C(=O)N2CCOCC2)c1)c1ccc([N+](=O)[O-])cc1,inactive
4,O=C(NC(=C(Cl)Cl)S(=O)(=O)c1ccc(Cl)cc1)c1ccccc1,inactive
5,CC1(C)C(=O)Nc2ccccc2N1C(=O)COC(=O)c1ccc([N+](=O)[O-])o1,inactive
6,O=[N+]([O-])c1ccc(NCCN2CCOCC2)c([N+](=O)[O-])c1,inactive
7,CCC(=O)N1C[C@H](C)[C@H](OC)CN(C)C(=O)c2ccc(NC(=O)c3ccccc3)cc2OC[C@H]1C,inactive
8,COCC(=O)Nc1ccc2c(c1)OC[C@@H](C)N(CC1CC1)C[C@@H](C)[C@@H](OC)CN(C)C2=O,inactive
9,CO[C@H]1CN(C)C(=O)c2ccc(NC(=O)C3CC3)cc2OC[C@@H](C)N(CC2CCOCC2)C[C@@H]1C,inactive
10,O=C(C[C@@H]1C[C@H]2c3cc(NC(=O)Nc4ccccc4F)ccc3O[C@H]2[C@H](CO)O1)NC1CCCC1,inactive
11,CCc1noc(C)c1C(=O)Nc1ccc(S(=O)(=O)N2CCCC(C)C2)cc1 (stereo not drawn),inactive
12,Cc1ccc([N+](=O)[O-])cc1S(=O)(=O)Nc1ccc(C(=O)N2CCN(C(=O)c3ccco3)CC2)cc1,inactive
13,CCC(=O)Nc1ccc2c(c1)OC[C@@H](C)N(Cc1ccccc1)C[C@@H](C)[C@@H](OC)CN(C)C2=O,inactive
14,CC(C)c1ccc(C(=O)N2CCCC(c3cc(C(=O)Nc4ccccc4Cl)no3)C2)cc1 (stereo not drawn),inactive
15,COc1cccc(N2C(=O)NC(=O)/C(=C/c3ccc([N+](=O)[O-])s3)C2=O)c1,inactive
16,O=C(Nc1ccc(F)cc1)N1CCN(C(=O)C2CCCO2)CC1 (stereo not drawn),inactive
17,COc1ccc(NS(=O)(=O)c2cc(NC(=O)[C@H](C)NC(N)=O)ccc2N2CCCC2)cc1,inactive
18,CCCN1C[C@@H](C)[C@@H](OC)CN(C)C(=O)c2ccc(NC(=O)c3ccccc3)cc2OC[C@@H]1C,inactive
19,O=C(NC1CC1)c1c(O)c2ccccc2[nH]c1=O,inactive
20,O=C(Nc1nc2ccc([N+](=O)[O-])cc2s1)c1ccncc1,inactive
21,Cc1cc(N2CCCC2)ccc1NC(=O)CN1C(=O)NC2(CCCCC2)C1=O,inactive

row,Compound,"activity change, negative = inhibition"
1,COc1ccc2cc(C(c3nnnn3C3CCCC3)N3CCc4ccccc4C3)c(=O)[nH]c2c1 (stereo not drawn),inactive
2,Cc1cnc(NC(=O)c2ccc3c(c2)OCCO3)s1,inactive
3,CCCN1C[C@H](C)[C@@H](OC)CN(C)C(=O)c2ccc(NC(=O)CC)cc2OC[C@@H]1C,inactive
4,COCC(=O)Nc1ccc2c(c1)OC[C@@H](C)N(CC1CC1)C[C@H](C)[C@H](OC)CN(C)C2=O,inactive
5,O=C(O)c1cccc(Nc2ccnc(Nc3cccc(C(=O)O)c3)n2)c1,inactive
6,CC1(Oc2cnc(Cl)c3ccccc23)CCN(Cc2ccc(OC(F)(F)F)cc2)C1 (stereo not drawn),inactive
7,O=C(O)c1ccc(Cn2cc(/C=C\[N+](=O)[O-])c3ccccc32)o1,inactive
8,Cc1ccc(NC(=O)c2sc(C)nc2C)c(C)c1,inactive
9,O=C(N/N=C/c1ccc(O)cc1O)C(=O)N/N=C/c1ccc(O)cc1O,inactive
10,CCCN1C[C@H](C)[C@@H](OC)CN(C)C(=O)c2ccc(NC(=O)CC)cc2OC[C@H]1C,inactive
11,CCN(CC)C1CCN(Cc2c(C(=O)N3CCCCCCC3)nc3ccc(Cl)cn23)C1 (stereo not drawn),inactive
12,O=C(COC(=O)c1cccc(OC(F)F)c1)Nc1cccc(S(=O)(=O)N2CCCC2)c1,inactive
13,CC(=O)N1CCc2c(sc(NC(=O)Cc3ccccc3)c2C(N)=O)C1,inactive
14,CC(=O)Nc1cccc(NC(=O)c2cc([N+](=O)[O-])ccc2N2CCCCC2)c1,inactive
15,Cc1nc2ccc(NS(=O)(=O)c3c(F)cc(F)cc3Br)cc2s1,inactive
16,O=C(Nc1ccc2c(c1)OCO2)C1Cc2c(-c3ccc4c(c3)OCO4)ccnc2O1 (stereo not drawn),inactive
17,CO[C@@H]1CN(C)C(=O)c2ccc(NC(C)=O)cc2OC[C@@H](C)NC[C@@H]1C,inactive
18,CC(OC(=O)c1n[nH]c2ccccc12)C(=O)Nc1ccccc1[N+](=O)[O-] (stereo not drawn),inactive
19,O=C(Nc1ccc(C(=O)N2CCCC2)cc1)c1ccc2c(c1)OCO2,inactive
20,Cn1c(NN=O)nc2ccccc21,inactive
21,COc1ccc(OC)c(S(=O)(=O)NCC(c2cccs2)N2CCc3ccccc3C2)c1 (stereo not drawn),inactive

row,Compound,"activity change, negative = inhibition"
1,CCOC(=O)N1CCN(C(=O)Cc2ccccc2[N+](=O)[O-])CC1,inactive
2,Cc1ccc(C)c(N2N=C(C(=O)OCc3nnc(-c4ccccc4Br)o3)CCC2=O)c1,inactive
3,O=S(=O)(NCc1cccnc1)c1ccc(Cl)cc1,inactive
4,CO[C@H]1CN(C)C(=O)c2ccc(NC(C)=O)cc2OC[C@H](C)N(C(=O)CC2CC2)C[C@H]1C,inactive
5,COc1cc(-c2nnc(COC(=O)c3ccc([N+](=O)[O-])o3)o2)cc(OC)c1OC,inactive
6,CC(C)OCCCNC(=O)CN1C(=O)COc2ccc(S(=O)(=O)N3CCCCCC3)cc21,inactive
7,O=C(NCCc1ccccc1)c1cccc2c(-c3ccc(F)c(F)c3)coc12,inactive
8,CO[C@@H]1CN(C)C(=O)c2ccc(NC(=O)C3CC3)cc2OC[C@@H](C)N(CC2CCOCC2)C[C@@H]1C,inactive
9,CCC(=O)Nc1ccc2c(c1)OC[C@H](C)N(C(=O)CC)C[C@@H](C)[C@H](OC)CN(C)C2=O,inactive
10,COc1ccc(S(=O)(=O)N2CCOC23CCN(S(=O)(=O)c2ccc(C)cc2)CC3)cc1,inactive
11,C/C(CC(=O)Nc1cc(C)ccn1)=N\NC(=O)c1cccc(C)c1O,inactive
12,COc1cccc(NC(=O)Cn2c(=O)n(C)c(=O)c3sc4c(c32)COC(C)(C)C4)c1,inactive
13,O=C(N/N=C\c1ccc([N+](=O)[O-])o1)c1cncc(Br)c1,inactive
14,CCCC(=O)n1nc(-c2cccnc2)nc1NCc1ccc(OC)cc1,inactive
15,CCCC(=O)Nc1ccc2c(c1)OC[C@@H](C)NC[C@H](C)[C@@H](OC)CN(C)C2=O,inactive
16,COc1cccc(/C=N/Nc2nc(C)cc(=O)[nH]2)c1OC,inactive
17,O=C(NNS(=O)(=O)c1ccc(F)cc1)c1ccccc1F,inactive
18,COc1cccc(C(NC(=O)C2CCN(CCCOc3ccccc3)CC2)c2ccccn2)c1 (stereo not drawn),inactive
19,COc1ccc(OCCN2CCC(C(=O)NC(c3ccccn3)c3ccccc3OC)CC2)cc1 (stereo not drawn),inactive
20,OC(CNC1CCCCC1)COCCOc1ccc(Br)cc1 (stereo not drawn),inactive
21,CCCC(=O)Nc1ccc2c(c1)OC[C@H](C)N(Cc1ccc(F)cc1)C[C@@H](C)[C@H](OC)CN(C)C2=O,inactive

row,Compound,"activity change, negative = inhibition"
1,CN1CC(=O)N2Cc3[nH]c4ccccc4c3C[C@H]2C1=O,inactive
2,CC1CCCN(CC(O)COC(c2ccccc2)c2ccccc2)C1 (stereo not drawn),inactive
3,O=C(O)c1ccc2nnn(O)c2c1,inactive
4,CCC1=NN(C(=O)c2ccccc2O)C(O)(c2ccccc2)C1 (stereo not drawn),inactive
5,COc1ccccc1NS(=O)(=O)c1cc(C(=O)NC2CCN(Cc3ccccc3)CC2)ccc1C,inactive
6,CN1N=C(C(C)(C)C)CSC1=Nc1ccccc1,inactive
7,O=C(OCC(=O)N1CCN(c2ccccc2)CC1)c1ccc([N+](=O)[O-])s1,inactive
8,COc1ccccc1C(=O)Nc1ccc2c(c1)OC[C@@H](C)N(CC1CC1)C[C@H](C)[C@H](OC)CN(C)C2=O,inactive
9,O=[N+]([O-])c1ccc(S(=O)(=O)N2CCC3(CC2)OCCN3S(=O)(=O)c2cccs2)cc1,inactive
10,CO[C@@H]1CN(C)C(=O)c2ccc(NC(=O)c3ccccc3)cc2OC[C@@H](C)N(C(=O)C2CC2)C[C@@H]1C,inactive
11,CN(C)CCNC(=O)c1cccc(S(=O)(=O)Nc2ccccc2F)c1,inactive
12,O=C(Nc1ccc2c(c1)OCCO2)C1CCCC1,inactive
13,CC(=O)Oc1cc(C(=O)OCC(=O)N2CCc3ccccc3C2)cc(OC(C)=O)c1OC(C)=O,inactive
14,Cc1cc(NC(=O)C23CC4CC(C2)CC(n2cnc([N+](=O)[O-])n2)(C4)C3)no1,inactive
15,CCN=c1sc(C(=O)Nc2ccccc2)c(C)n1CC,inactive
16,COC(=O)C[C@H]1CC[C@@H]2[C@H](COc3ccc(NC(=O)c4cnccn4)cc3C(=O)N2C)O1,inactive
17,CCC(=O)N1CCC1(C)C(=O)Nc1cccc2cccnc12 (stereo not drawn),inactive
18,O=C(N/N=C/c1ccc([N+](=O)[O-])o1)c1ccccc1NS(=O)(=O)c1cccs1,inactive
